Assay: Cytotoxicity against human H460 cells after 48 hrs by MTT assay
Type: functional, cell-based
Settings: NCI-H460, 48 h

## CCC[C@H]1NC(=O)[C@H](C)NC(=O)[C@H](CC(C)C)N(C)C(=O)[C@H](Cc2ccccc2)NC(=O)[C@H](CCSC)NC(=O)[C@@H](Cc2ccccc2)N(C)C(=O)[C@@H](C(C)C)OC(=O)[C@H]1C [PRECARRIEBOWMIDE]
  IC50: > 10 µM

Reference: ChEMBL document CHEMBL2417360, “Parguerene and precarriebowmide, two classes of lipopeptides from the marine cyanobacterium Moorea producens” (J Nat Prod, 2013)
